Experimental data published in US9642831B2, “Substituted chromanes and method of use” (AbbVie S.á.r.l., priority 2014, dated 2017).

Target: F508delCFTR (Homo sapiens, UniProt P13569, DEL508-508)
Assay: Cell Surface Expression-Horse Radish Peroxidase (CSE-HRP) assay
Assay type: cell-based
Parameters: expressed in transfected cells; host or cells: CFBE41o- human lung derived epithelial cell line, doxycycline-inducible
Settings: CFBE4lo-F508delCFTR-HRP cells; for EC50: 18-24 hours at 33° C., 8-point curve, highest concentration 20 μM, luminescence readout; for Emax: maximum % activity at any tested concentration, normalized to on-plate positive control (3 μM Example 1)
Text: Cell Surface Expression-Horse Radish Peroxidase (CSE-HRP) Assay:
A cellular assay for measuring the F508delCFTR cell surface expression after correction with test compounds was developed in human lung derived epithelial cell line (CFBE4lo-) (Veit G et al, (2012) Mol Biol Cell. 23(21): 4188-4202). This was achieved by expressing the F508delCFTR mutation along with a horseradish peroxidase (HRP) in the fourth exofacial loop and then measuring the HRP activity using luminescence readout from these cells, CFBE4lo-F508delCFTR-HRP, that were incubated overnight with the test corrector compounds. Briefly, for this primary assay, the CFBE4lo-F508delCFTR-HRP cells were plated in 384-well plates (Greiner Bio-one; Cat 781080) at 4,000 cells/well along with 0.5 μg/mL doxycycline to induce the F508delCFTR-HRP expression and further incubated at 37° C., 5% CO2 for 72 hours. The test compounds were then added at the required concentrations and further incubated for 18-24 hours at 33° C. The highest concentration tested was 20 μM with an 8-point concentration response curve using a 3-fold dilution. Three replicate plates were run to determine one EC50. All plates contained negative controls (dimethyl sulfoxide, DMSO) and positive controls (3 μM of 3-[(2R,4R)-4-({[1-(2,2-difluoro-1,3-benzodioxol-5-yl)cyclopropyl]carbonyl}amino)-7-methoxy-3,4-dihydro-2H-chromen-2-yl]benzoic acid) as well as on-plate concentration response of the positive control. Post incubation, the plates were washed 5× times with Dulbecco's phosphate buffered saline (DPBS), followed by the addition of the HRP substrate, luminol (50 μL), and measuring the HRP activity using luminescence readout on EnVision® Multilabel Plate Reader (Perkin Elmer; product number 2104-0010). The raw counts from the experiment are analyzed using Accelrys® Assay Explorer v3.3.
Z′ greater than 0.5 was used as passing quality control criteria for the plates.
The Z′ is defined as: 1−[3*SDPositive Control+3*SDNegative Control/Absolute(MeanPositive Control−MeanNegative Control)] wherein “SD” is standard deviation.
The % activity measured at each of the 8 test concentrations of the test compound was normalized to the on-plate positive control using the following formula: % activity=[(test compound response−DMSO response)/(positive control response−DMSO response)]*100
The maximum % activity achieved for the test compound at any tested concentration is presented in Table 1 along with the EC50 calculated using the following general sigmoidal curve with variable Hill slope equation (described as Model 42 in the Accelrys® Assay Explorer v3.3 software): y=(a−d)/(1+(x/c)^b)+d
General sigmoidal curve with concentration, response, top, bottom, EC50 and Hill slope.
This model describes a sigmoidal curve with an adjustable baseline, a. The equation can be used to fit curves where response is either increasing or decreasing with respect to the independent variable, “x”.
“x” is a concentration of drug under test.
“a” is the maximum response, and “d” is the minimum response
“c” is the inflection point (EC50) for the curve. That is, “y” is halfway between the lower and upper asymptotes when x=c.
“b” is the slope-factor or Hill coefficient. The sign of b is positive when the response increases with increasing dose and is negative when the response decreases with increasing dose (inhibition).

F508delCFTR, sequence (P13569 with tags, fused parts or gaps DEL508-508): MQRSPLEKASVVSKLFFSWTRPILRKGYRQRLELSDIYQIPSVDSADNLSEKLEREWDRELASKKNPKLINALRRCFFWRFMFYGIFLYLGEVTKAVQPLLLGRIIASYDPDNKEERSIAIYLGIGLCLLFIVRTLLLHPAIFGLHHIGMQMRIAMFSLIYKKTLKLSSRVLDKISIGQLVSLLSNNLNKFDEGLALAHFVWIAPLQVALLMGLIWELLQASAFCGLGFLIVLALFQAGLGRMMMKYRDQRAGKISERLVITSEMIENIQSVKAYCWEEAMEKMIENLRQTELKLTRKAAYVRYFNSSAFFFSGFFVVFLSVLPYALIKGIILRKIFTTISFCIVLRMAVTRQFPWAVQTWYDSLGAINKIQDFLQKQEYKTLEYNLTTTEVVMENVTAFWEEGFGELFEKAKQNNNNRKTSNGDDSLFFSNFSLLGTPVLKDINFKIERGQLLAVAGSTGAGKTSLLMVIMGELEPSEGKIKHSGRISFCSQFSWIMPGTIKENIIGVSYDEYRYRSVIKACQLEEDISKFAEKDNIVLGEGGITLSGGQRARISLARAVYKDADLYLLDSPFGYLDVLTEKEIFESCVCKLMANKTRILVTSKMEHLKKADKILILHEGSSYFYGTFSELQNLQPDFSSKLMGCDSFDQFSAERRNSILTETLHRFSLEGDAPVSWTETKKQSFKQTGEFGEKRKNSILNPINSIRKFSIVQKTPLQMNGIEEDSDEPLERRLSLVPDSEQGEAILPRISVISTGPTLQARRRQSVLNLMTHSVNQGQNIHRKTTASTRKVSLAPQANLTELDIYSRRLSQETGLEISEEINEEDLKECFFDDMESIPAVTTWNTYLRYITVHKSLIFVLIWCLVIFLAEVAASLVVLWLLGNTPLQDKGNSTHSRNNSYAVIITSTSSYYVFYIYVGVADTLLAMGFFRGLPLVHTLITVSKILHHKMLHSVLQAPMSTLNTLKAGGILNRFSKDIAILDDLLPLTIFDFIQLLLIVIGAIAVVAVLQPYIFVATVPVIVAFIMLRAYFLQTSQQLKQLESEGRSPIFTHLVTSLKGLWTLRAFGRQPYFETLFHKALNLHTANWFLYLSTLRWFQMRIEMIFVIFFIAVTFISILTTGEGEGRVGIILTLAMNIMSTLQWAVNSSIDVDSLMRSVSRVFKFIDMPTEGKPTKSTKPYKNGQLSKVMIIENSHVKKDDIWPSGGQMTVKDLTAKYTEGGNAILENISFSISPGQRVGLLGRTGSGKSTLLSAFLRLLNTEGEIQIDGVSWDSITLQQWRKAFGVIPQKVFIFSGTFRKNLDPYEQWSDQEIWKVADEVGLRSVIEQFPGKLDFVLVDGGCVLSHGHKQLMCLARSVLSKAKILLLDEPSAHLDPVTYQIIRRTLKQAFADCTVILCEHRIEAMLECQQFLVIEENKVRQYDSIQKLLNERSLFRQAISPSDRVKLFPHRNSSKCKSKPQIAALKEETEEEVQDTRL

EC50 [µM]	Emax [%]	Structure (SMILES)
3.05	88	COC(=O)c1cccc(C2CC(NC(=O)C3(c4ccc5c(c4)OC(F)(F)O5)CC3)c3ccc(OC)nc3O2)c1 (mixture of isomers) [Example 37, methyl 3-[4-({[1-(2,2-difluoro-1,3-benzodioxol-5-yl)cyclopropyl]carbonyl}amino)-7-methoxy-3,4-dihydro-2H-pyrano[2,3-b]pyridin-2-yl]benzoate]
1.94	77	COc1ccc2c(c1)OC(C1CN(C(=O)OC(C)(C)C)C1)CC2NC(=O)C1(c2ccc3c(c2)OC(F)(F)O3)CC1 (mixture of isomers) [Example 115, tert-butyl 3-[4-({[1-(2,2-difluoro-1,3-benzodioxol-5-yl)cyclopropyl]carbonyl}amino)-7-methoxy-3,4-dihydro-2H-chromen-2-yl]azetidine-1-carboxylate]
6.01	82	COc1ccc2c(c1)OC(C1CN(S(C)(=O)=O)C1)CC2NC(=O)C1(c2ccc3c(c2)OC(F)(F)O3)CC1 (mixture of isomers) [Example 117, 1-(2,2-difluoro-1,3-benzodioxol-5-yl)-N-{7-methoxy-2-[1-(methylsulfonyl)azetidin-3-yl]-3,4-dihydro-2H-chromen-4-yl}cyclopropanecarboxamide]
1.77	109	COc1ccc2c(c1)O[C@@H](c1cccnc1)C[C@@H]2NC(=O)C1(c2ccc3c(c2)OC(F)(F)O3)CC1 (racemic) [Example 22, rac-1-(2,2-difluoro-1,3-benzodioxol-5-yl)-N-[(2R,4S)-7-methoxy-2-(pyridin-3-yl)-3,4-dihydro-2H-chromen-4-yl]cyclopropanecarboxamide]
5.71	106	COc1ccc2c(n1)O[C@@H](c1cccc(C(=O)O)c1)C[C@@H]2NC(=O)C1(c2ccc3c(c2)OC(F)(F)O3)CC1 (racemic) [Example 29, rac-3-[(2R,4S)-4-({[1-(2,2-difluoro-1,3-benzodioxol-5-yl)cyclopropyl]carbonyl}amino)-7-methoxy-3,4-dihydro-2H-pyrano[2,3-b]pyridin-2-yl]benzoic acid]
1.88	78	COC(=O)c1cccc([C@H]2C[C@@H](NC(=O)C3(c4ccc5c(c4)OC(F)(F)O5)CC3)c3ccc(OC)nc3O2)c1 (racemic) [Example 30, methyl rac-3-[(2R,4R)-4-({[1-(2,2-difluoro-1,3-benzodioxol-5-yl)cyclopropyl]carbonyl}amino)-7-methoxy-3,4-dihydro-2H-pyrano[2,3-b]pyridin-2-yl]benzoate]
10.7	21	O=C(O)c1cccc([C@H]2C[C@@H](NC(=O)C3(c4ccc5c(c4)OC(F)(F)O5)CC3)c3cccnc3O2)c1 (racemic) [Example 31, rac-3-[(2R,4R)-4-({[1-(2,2-difluoro-1,3-benzodioxol-5-yl)cyclopropyl]carbonyl}amino)-3,4-dihydro-2H-pyrano[2,3-b]pyridin-2-yl]benzoic acid]
≥ 20	16	O=C(O)c1cccc([C@H]2C[C@H](NC(=O)C3(c4ccc5c(c4)OC(F)(F)O5)CC3)c3cccnc3O2)c1 (racemic) [Example 32, rac-3-[(2R,4S)-4-({[1-(2,2-difluoro-1,3-benzodioxol-5-yl)cyclopropyl]carbonyl}amino)-3,4-dihydro-2H-pyrano[2,3-b]pyridin-2-yl]benzoic acid]
7.65	38	COC(=O)c1cccc([C@H]2C[C@@H](NC(=O)C3(c4ccc5c(c4)OC(F)(F)O5)CC3)c3cccnc3O2)c1 (racemic) [Example 33, rac-methyl 3-[(2R,4R)-4-({[1-(2,2-difluoro-1,3-benzodioxol-5-yl)cyclopropyl]carbonyl}amino)-3,4-dihydro-2H-pyrano[2,3-b]pyridin-2-yl]benzoate]
≥ 20	15	COC(=O)c1cccc([C@H]2C[C@H](NC(=O)C3(c4ccc5c(c4)OC(F)(F)O5)CC3)c3cccnc3O2)c1 (racemic) [Example 34, rac-methyl 3-[(2R,4S)-4-({[1-(2,2-difluoro-1,3-benzodioxol-5-yl)cyclopropyl]carbonyl}amino)-3,4-dihydro-2H-pyrano[2,3-b]pyridin-2-yl]benzoate]
2.68	107	COc1ccc2c(c1)O[C@@H](C1CC1)C[C@H]2NC(=O)C1(c2ccc3c(c2)OC(F)(F)O3)CC1 (racemic) [Example 40, rac-N-[(2R,4R)-2-cyclopropyl-7-methoxy-3,4-dihydro-2H-chromen-4-yl]-1-(2,2-difluoro-1,3-benzodioxol-5-yl)cyclopropanecarboxamide]
2.58	73	COc1ccc2c(c1)O[C@@H](C1CC1)C[C@@H]2NC(=O)C1(c2ccc3c(c2)OC(F)(F)O3)CC1 (racemic) [Example 41, rac-N-[(2R,4S)-2-cyclopropyl-7-methoxy-3,4-dihydro-2H-chromen-4-yl]-1-(2,2-difluoro-3-benzodioxol-5-yl)cyclopropanecarboxamide]
1.69	112	COc1ccc2c(c1)O[C@@H](c1cccnc1)C[C@H]2NC(=O)C1(c2ccc3c(c2)OC(F)(F)O3)CC1 (racemic) [Example 57, rac-1-(2,2-difluoro-1,3-benzodioxol-5-yl)-N-[(2R,4R)-7-methoxy-2-(pyridin-3-yl)-3,4-dihydro-2H-chromen-4-yl]cyclopropanecarboxamide]
≥ 20	5	COC(=O)c1cccc([C@H]2C[C@@H](NC(=O)C3(c4ccc5c(c4)OC(F)(F)O5)CC3)c3ccc(Cl)nc3O2)c1 (racemic) [Example 112, methyl rac-3-[(2R,4R)-7-chloro-4-({[1-(2,2-difluoro-1,3-benzodioxol-5-yl)cyclopropyl]carbonyl}amino)-3,4-dihydro-2H-pyrano[2,3-b]pyridin-2-yl]benzoate]
3.55	49	COC(=O)c1cccc([C@H]2C[C@@H](NC(=O)C3(c4ccc5c(c4)OC(F)(F)O5)CC3)c3ccc(F)nc3O2)c1 (racemic) [Example 113, methyl rac-3-[(2R,4R)-4-({[1-(2,2-difluoro-1,3-benzodioxol-5-yl)cyclopropyl]carbonyl}amino)-7-fluoro-3,4-dihydro-2H-pyrano[2,3-b]pyridin-2-yl]benzoate]
4.76	61	O=C(O)c1cccc([C@H]2C[C@@H](NC(=O)C3(c4ccc5c(c4)OC(F)(F)O5)CC3)c3ccc(Cl)nc3O2)c1 (racemic) [Example 114, rac-3-[(2R,4R)-7-chloro-4-({[1-(2,2-difluoro-1,3-benzodioxol-5-yl)cyclopropyl]carbonyl}amino)-3,4-dihydro-2H-pyrano[2,3-b]pyridin-2-yl]benzoic acid]
8.15	25	COC(=O)c1cccc([C@H]2C[C@H](NC(=O)C3(c4ccc5c(c4)OC(F)(F)O5)CC3)c3ccc(F)nc3O2)c1 (racemic) [Example 118, methyl rac-3-[(2R,4S)-4-({[1-(2,2-difluoro-1,3-benzodioxol-5-yl)cyclopropyl]carbonyl}amino)-7-fluoro-3,4-dihydro-2H-pyrano[2,3-b]pyridin-2-yl]benzoate]
2.56	79	CCOC(=O)[C@H]1C[C@H](NC(=O)C2(c3ccc4c(c3)OC(F)(F)O4)CC2)c2ccc(OC)cc2O1 (racemic) [Example 130, Ethyl rac-(2R,4S)-4-({[1-(2,2-difluoro-1,3-benzodioxol-5-yl)cyclopropyl]carbonyl}amino)-7-methoxy-3,4-dihydro-2H-chromene-2-carboxylate]
